Assay [1] relates to carragenin rat paw edema. Kind of assay: Anti inflammatory activity test (Winter, 1962), carragenin rat paw edema. In kind it is in vivo, Wistar rats. Conditions: peroral in CMC 1%, inhibition of rat paw edema volume, doses 10-80 mg/kg bw. An excerpt:
ANTI INFLAMMATORY ACTIVITY TEST (WINTER, 1962)
Carragenin was used as an inflammatory agent. The volum inhibition of rat paw edema following peroral administration of various doses of the sysnthetic compounds in 1% CMC in comparison to that of control was used to determine the activity of the compounds. In order to evaluate the anti-inflammatory of each compound. Wistar rats (body weight ranging from 200-250 g) were used and divided randomly into 5 groups: one group served as or control and 4 groups were treatment groups. The control group received the vehicle CMC; (Carboxy Methyl Cellulose […]), while the treatment groups received the synthetic compound per orally in CMC 1%. Doses of 10, 20, 40 and 80 mg/kg bw were given to the animals. Where one hour later the animals received a subplantar injection of 0.05 ml of carragenin suspension in saline solution (NaCi 0.9%)- The volumes of rat paw edema were measured immediately and every half an hour following the subplantar injection for 5 hours.

In assay [2] the test system is lipid peroxidation (microsome). Kind of assay: Anti oxidation test (Haenen and Bast, 1983), lipid peroxidation. In kind it is biochemical. To be noted: malondialdehyde (TBA), microsome 2 mg protein/ml, 37° C., absorbance 535 nm. As for the experimental part: ANTI OXIDATION […], 1983) Anti oxidative activity (lipid peroxidation) was determined by measuring the reactive form of thiobarbituric acid, i.e. malondialdehyde. The synthetic compound with final concentration of 0.5; 1.0; 2.0; 4.0 microM was put into glass tubes. […] The mixture was pre-incubated at 37° C. for 5 minutes. Lipid peroxidation was initiated with the addition of ferro sulphate (0.5 ml, 10 microN) and incubated at 37° C. for 5 minutes, the reaction was stopped by addition of aliquot (0.3 ml) to the mixture of TCA, TBA, and BHT (2 ml) in cold. After heating (80° C.) for 15 minutes and centrifugation (15 minutes), absorbance was read at 535 nm.

The test system of assay [3] is S. Aureus. Kind of assay: Anti bacterial and antifungal activity test. Conditions: in DMSO, 37° C. 24 hours. Format: cell-based. As for the experimental part:
(§1) ANTI BATERIAL AND ANTIFUNGAL ACTIVITY TEST
(§2) Sterile medium of Bacto Muller Hinton was melted at 45-50° C. and poured (25 ml) into a sterile Petric dish (100 mm in diameter), and was left at room temperature for 1 hour. The sterility was checked by overnight incubation (37° C.). The media was immediately used. The microorganism used was gram positive and gram negative. The drug solutions of 0.1, 0.2 and 0.4% in DMSO were used. Incubation was performed at 37° C. for 24 hours.

The subject of assay [4] is B. subtilis. Put plainly: Anti bacterial and antifungal activity test. In kind it is cell-based. Conditions: in DMSO, 37° C. 24 hours. Here is the method:
as §1, §2

In assay [5] the test system is C. albicans. Kind of assay: Anti bacterial and antifungal activity test. In kind it is cell-based. To be noted: in DMSO, 37° C. 24 hours. Here is the method: as §1, §2
Assay [6] relates to S. pheumoniae. Put plainly: Anti bacterial and antifungal activity test. Conditions: in DMSO, 37° C. 24 hours. In kind it is cell-based, S. pneumoniae. As for the experimental part: as §1, §2

Broadly, the IC50 is the concentration at which inhibition is half-maximal. The low end stands for greater potency in that assay, the high end for weaker potency in that assay. With `CCc1cc(/C=C2\CC/C(=C\c3cc(CC)c(O)c(CC)c3)C2=O)cc(CC)c1O` [PGV-2], the “ED 50” value in assay [1] was 80 mg/kg.bb. In assay [2], this compound yielded a half-maximal inhibitory concentration (IC50) of 2210 nM.

Turning to `O=C1C(=Cc2cc(Cl)c(O)c(Cl)c2)CCC1=Cc1cc(Cl)c(O)c(Cl)c1` [PGV-6], the “ED 50” value in assay [1] came out at 20 mg/kg.bb. Also, the “Minimum Inhibition Concentration” value is on record as 0.25% in assay [3], 0.20% in assay [4], 0.25% in assay [5] and 0.10% in assay [6]. In assay [2], this compound yielded an IC50 of 14900 nM.

As for `COc1cc(/C=C2/CC/C(=C/c3cc(OC)c(O)c(OC)c3)C2=O)cc(OC)c1O` [PGV-5], the “ED 50” value in assay [1] stood at 48 mg/kg.bb. In assay [2], this compound returned a half-maximal inhibitory concentration (IC50) of 990 nM.

Turning to `O=C(C=Cc1cc(Cl)c(O)c(Cl)c1)C=Cc1cc(Cl)c(O)c(Cl)c1` [GVT-6, 1,5-bis (4-hydroxy-3,5-dichlorophenyl)-1,4-pentadiene-3-one], the “Minimum Inhibition Concentration” value in assay [3] was 0.25%; in assay [4], 0.30%; in assay [5] it was 0.25%; in assay [6] it was 0.05%.

For the compound `O=C1C(=Cc2cc(Cl)c(O)c(Cl)c2)CCCC1=Cc1cc(Cl)c(O)c(Cl)c1` [HGV-6], in assay [1], the “ED 50” value is 25 mg/kg.bb. The “Minimum Inhibition Concentration” value in assay [3] came out at 0.35%; in assay [4], 0.25%; in assay [5], 0.25%; in assay [6] it was 0.05%.

`Cc1cc(/C=C2\CC/C(=C\c3cc(C)c(O)c(C)c3)C2=O)cc(C)c1O` [PGV-1]: the “ED 50” value in assay [1] came to 86 mg/kg.bb. Also, in assay [2], the IC50 stood at 2200 nM.

With `COc1cc(/C=C2/CCC/C(=C/c3cc(OC)c(O)c(OC)c3)C2=O)cc(OC)c1O` [HGV-5], the “ED 50” value in assay [1] is recorded as 222 mg/kg.bb. The same compound had an IC50 in assay [2] of 1700 nM.

`CCc1cc(C=C2CCCC(=Cc3cc(CC)c(O)c(CC)c3)C2=O)cc(CC)c1O` [HGV-2]: the “ED 50” value in assay [1] was 20 mg/kg.bb. In assay [2], this compound registered a half-maximal inhibitory concentration (IC50) of 1970 nM.

The values are drawn from patent publication US6541672B1, “Derivatives of benzilidine cyclohexanone, benzilidine cyclopentanone, and benzilidine acetone and their synthesis” (Faculty of Pharmacy, The University of Gadjah Mada, priority 1997, dated 2003).
